In brackets after ≈: the same amount, converted by molar mass. A value given as a limit tells only on which side of the number the result lay.

The record followed here is publication PMC10180054, “Design, Synthesis and Biological Evaluation of Novel Pleuromutilin Derivatives Containing 6-Chloro-1-R-1H-pyrazolo[3,4-d]pyrimidine-4-amino Side Chain” (Molecules, 2023).

The subject of series [1] is MRSA ATCC 43300. Kind of series: MIC/MBC by broth dilution (CLSI). Type of series: cell-based, Staphylococcus aureus. The conditions noted are these: for MBC / MIC: Staphylococcus aureus; for MBC: MRSA ATCC 43300, 99.9% of the bacteria killed; for MIC: MRSA ATCC 43300, broth dilution, 24 h, 37 °C, read-out: MIC. The procedure: (§1) The in vitro antimicrobial activity of the pleuromutilin derivatives was assessed against MRSA ATCC 43300, S. aureus ATCC 29213, S. aureus 144 and S. aureus AD3 according to the Clinical and Laboratory Standards Institute (CLSI). Tiamulin was used as a positive control drug. The results were summarized as the minimum inhibitory concentration (MIC) and the minimum bactericidal concentration (MBC) in Table 1 and Table 2. In addition, MIC results for the pleuromutilin derivatives against four Gram-negative bacteria are supplied in Tables S2 and S3.
(§2) The MIC and MBC values of the synthesized novel pleuromutilin derivatives against MRSA ATCC 43300, S. aureus ATCC 29213, S. aureus 144 and S. aureus AD3 were measured. Tiamulin was used as a positive control drug. The MIC and MBC values were manipulated by broth dilution according to the Clinical and Laboratory Standards (CLSI). Each compound to be measured was dissolved in a solution of 95% deionized water, 2.5% dimethyl sulfoxide (DMSO) and 2.5% Tween-80 with a concentration of 1280 µg/mL. Subsequently, serial twofold dilutions were made in a concentration range from 64 µg/mL to 0.0625 µg/mL. The working bacterial suspension was inoculated into each well, which provided the final inoculum density of 5 × 10^5 CFU/mL. Three parallel experiments were performed for each compound.
(§3) Overall, 25 µL of the bacterial solution from the wells with no obvious bacterial growth was inoculated on MH agar plates. Then, the inoculated MH agar plates were further cultured at 37 °C for 24 h.

The test system of a further series is S. aureus 144. The series is described as follows: MIC/MBC by broth dilution (CLSI). Type of series: cell-based. The conditions noted are these: Staphylococcus aureus; S. aureus 144 (clinical strain). As to the method:
as §1, §2, §3

A further series concerns S. aureus AD3. The series is described as follows: MIC/MBC by broth dilution (CLSI). The class given is cell-based. The conditions noted are these: Staphylococcus aureus; S. aureus AD3 (clinical strain). As to the method: as §1, §2, §3
The next series deals with S. aureus ATCC 29213. Kind of series: MIC/MBC by broth dilution (CLSI). The class given is cell-based. The conditions noted are these: Staphylococcus aureus, ATCC29213; for MBC: S. aureus ATCC 29213; for MIC: S. aureus ATCC 29213, broth dilution, 24 h, 37 °C. The procedure:
as §1, §2, §3
For orientation: In broth dilution the organism is exposed to a series of concentrations in liquid medium.

Series [2] deals with MRSA ATCC 43300. The series is described as follows: Constant concentration time–kill curves. The class given is cell-based, Staphylococcus aureus. The conditions noted are these: for type of bactericidal kinetics: time–kill curves, 1 to 32 × MIC. As to the method: Time–kill kinetic assays were performed, which were used to investigate the in vitro bactericidal kinetic effect of compounds 12c, 19c, 22c and tiamulin.
Time–kill curve assays were established with the MIC value to investigate the antibacterial effect of constant drug concentration on MRSA. […] MRSA ATCC 43300 was incubated in MH broth at 37 °C for 4.5 h and diluted to 1 × 10^6 CFU/mL in MH broth. The saline control group was subjected to the same schedule but 0.9% saline water was added instead of the test compound. All the samples were incubated in an oscillating thermostatic at 37 °C, and then 100 μL of the mixture was extracted to 900 μL of sterile saline (0.9%) at 0, 3, 6, 9, 12 and 24 h, respectively. Samples were serially diluted 10-fold in sterile saline (0.9%) and inoculated onto agar plates. The colonies were counted after incubation at 37 °C for 24 h. Three independent experiments were performed according to our previous work. Time–kill curves were constructed by plotting the log10 CFU per millilitre versus time, and the change in bacterial concentration was determined.

For series [3], the system named is MRSA ATCC 43300. The series is described as follows: Post-antibiotic effect (PAE). Type of series: cell-based, Staphylococcus aureus. The procedure:
PAE has been considered as pharmacodynamic assistance which provides a reference for the rational formulation of dosing regimen. PAE refers to the temporary suppression of bacterial growth following transient antibiotic treatment. PAE assays were conducted for compounds 12c and 22c.
PAE is calculated from growth curves on the difference in time required for the number (1 log10 CFU/mL) of drug-exposed and unexposed microbes. […] The PAE values of compounds 12c and 22c increased with increasing incubation time.
PAE of compounds 12c and 22c on MRSA ATCC 43300 was determined using MH broth according to our previous work. The final concentration of MRSA was 1 × 10^6 CFU/mL by dilution with MH broth. Compounds 12c, 22c and tiamulin were supplemented in the suspension at a final concentration of 2 × MIC and 4 × MIC, respectively. The negative control group contained untreated MRSA bacterial cells. The test tubes were incubated with a 37 °C constant temperature vibration incubator for 1 and 2 h. After incubation, the test compound was removed from the sample by diluting 1000-fold with the preheated MH broth. Next, 100 μL of suspension from each culture was 10-fold diluted in sterile saline and inoculated on MH agar plates at 0, 2, 4, 6 and 8 h after inoculation. The number of colonies was calculated after incubation at 37 °C for 24 h. The experiments were performed in triplicate.

Series [4] has as its system MRSA ATCC 43300. Kind of series: Neutropenic murine thigh infection model. The class given is in vivo. The conditions noted are these: neutropenic mice, 20 mg/kg, 24 h after dosing, n = 6/group. As to the method: Therefore, the in vivo efficacy of compounds 12c and 22c were assessed using the murine neutropenic thigh infection model. Mice groups treated with saline and tiamulin were chosen as the negative and positive controls.
Model experiments of neutropenic mouse thigh infection were manipulated as described in the literature. Female, six-week-old, specific-pathogen-free mice weighing approximately 23~26 g were used throughout the study. Mice were rendered neutropenic by injection of cyclophosphamide (Mead Johnson Pharmaceuticals, Evansville, IN) on day 4 (150 mg/kg) and day 1 (100 mg/kg) before the experiment. The neutrophil numbers in mice blood should be <0.1 × 10^9/L [34]. In total, 0.1 mL of MH broth of MRSA (10^7 CFU/mL) was inoculated into each thigh of the neutropenic mice. Mice were divided into 4 groups (6 mice per group), including control (sterile saline), compounds 12c, 22c and tiamulin groups. After 3 h post-infection, the corresponding drugs were injected into each mouse’s thigh. Mice were euthanized following intravenous injection for 24 h. Thigh tissue of each mouse was removed, collected, weighed and homogenized in 3 mL of ice sterile saline. Six ten-fold serial dilutions were performed and 25 μL of the bacterial solution from each tube was plated on MH agar plates. The resulting colonies were counted after 24 h incubation at 37 °C. The protocol for this study was reviewed and approved by the Institutional Animal Care and Use Committee of the South China Agricultural University.

As for `C=C[C@]1(C)C[C@@H](OC(=O)CSc2ccc(Nc3nc(Cl)nc4c3cnn4-c3ccc(F)cc3)cc2)[C@]2(C)[C@H](C)CC[C@]3(CCC(=O)[C@H]32)[C@@H](C)[C@@H]1O` [Compound 19c, 22-[4-(6-Chloro-1-(4-fluorophenyl)-1H-pyrazolo[3,4-d]pyrimidine-4-yl)amino-Phenylsulfanyl]-22-deoxypleuromutilin], the melting point lay in the range of 141 to 144 °C. In the series on MRSA ATCC 43300 [1], the minimum bactericidal concentration (MBC) is 0.5 µg/mL (≈ 0.683 µM) and the MIC was found to be 0.25 µg/mL (≈ 0.341 µM). For the same molecule, the MBC/MIC ratio in the series on MRSA ATCC 43300 [1] (against MRSA) is reported as at most 2. In the series with S. aureus 144, the MBC was determined as 2 µg/mL (≈ 2.73 µM) and the MIC is 1 µg/mL (≈ 1.37 µM). In the series with S. aureus AD3, this molecule had an MBC of 1 µg/mL (≈ 1.37 µM) and an MIC of 0.25 µg/mL (≈ 0.341 µM). In the series with S. aureus ATCC 29213, this molecule yielded an MBC of 0.5 µg/mL (≈ 0.683 µM) and an MIC of 0.25 µg/mL (≈ 0.341 µM). In the series with MRSA ATCC 43300 [2] (2 × MIC, 24 h incubation), the “MRSA killed in time–kill assay” value worked out at 99.9% and the “reduction of MRSA in time–kill assay” value is −3.57 log10 CFU/mL. Moreover, the “reduction of MRSA in time–kill assay” value with MRSA ATCC 43300 [2] (4 × MIC) is reported as −5.16 log10 CFU/mL. In the series on MRSA ATCC 43300 [2], the “type of bactericidal kinetics” value is “time-dependent”.
`C=C[C@]1(C)C[C@@H](OC(=O)CNc2nc(Cl)nc3c2cnn3-c2cccc([N+](=O)[O-])c2)[C@]2(C)[C@H](C)CC[C@]3(CCC(=O)[C@H]32)[C@@H](C)[C@@H]1O` [Compound 27b, 22-[(6-Chloro-1-(3-nitrophenyl)-1H-pyrazolo[3,4-d]pyrimidine-4-yl)amino]-22-deoxypleuromutilin]: the melting point was in the range of 131 to 135 °C. Further, in the series on MRSA ATCC 43300 [1], the MIC was over 64 µg/mL. Further, in the series with S. aureus 144, the MIC was over 64 µg/mL. The MIC in the series with S. aureus AD3 was over 64 µg/mL. In the series on S. aureus ATCC 29213, this molecule displayed an MIC of over 64 µg/mL.
The molecule `C=C[C@]1(C)C[C@@H](OC(=O)CSc2ccc(Nc3nc(Cl)nc4c3cnn4-c3cccc([N+](=O)[O-])c3)cc2)[C@]2(C)[C@H](C)CC[C@]3(CCC(=O)[C@H]32)[C@@H](C)[C@@H]1O` [Compound 27c, 22-[4-(6-Chloro-1-(3-nitrophenyl)-1H-pyrazolo[3,4-d]pyrimidine-4-yl)amino-Phenylsulfanyl]-22-deoxypleuromutilin] yielded a melting point of 137 to 139 °C. Besides, the MIC in the series on MRSA ATCC 43300 [1] is over 64 µg/mL. Besides, the minimal inhibitory concentration (MIC) against S. aureus 144 was over 64 µg/mL. This molecule also came in with an MIC against S. aureus AD3 of over 64 µg/mL. Besides, the MIC with S. aureus ATCC 29213 is over 64 µg/mL.
In turn, `C=C[C@]1(C)C[C@@H](OC(=O)CNc2nc(Cl)nc3c2cnn3-c2ccc3ccccc3c2)[C@]2(C)[C@H](C)CC[C@]3(CCC(=O)[C@H]32)[C@@H](C)[C@@H]1O` [Compound 28b, 22-[(6-Chloro-1-(naphthalen-2-yl)-1H-pyrazolo[3,4-d]pyrimidine-4-yl)amino]-22-deoxypleuromutilin] registered a melting point of 123 to 125 °C. In the series on MRSA ATCC 43300 [1], the MBC is over 64 µg/mL and the MIC is 32 µg/mL (≈ 48.8 µM). In the series on S. aureus 144, this molecule gave a minimal bactericidal concentration (MBC) of over 64 µg/mL and an MIC of 32 µg/mL (≈ 48.8 µM). In the series on S. aureus AD3, this molecule gave an MBC of over 64 µg/mL and an MIC of 32 µg/mL (≈ 48.8 µM). Moreover, in the series with S. aureus ATCC 29213, the MBC is over 64 µg/mL and 32 µg/mL (≈ 48.8 µM) was the least that counted as inhibitory (MIC).
The molecule `C=C[C@]1(C)C[C@@H](OC(=O)CSc2ccc(Nc3nc(Cl)nc4c3cnn4-c3ccc4ccccc4c3)cc2)[C@]2(C)[C@H](C)CC[C@]3(CCC(=O)[C@H]32)[C@@H](C)[C@@H]1O` [Compound 28c, 22-[4-(6-Chloro-1-(naphthalen-2-yl)-1H-pyrazolo[3,4-d]pyrimidine-4-yl-yl)amino-Phenylsulfanyl]-22-deoxypleuromutilin] showed a melting point of 115 to 118 °C. Moreover, the MIC in the series with MRSA ATCC 43300 [1] is over 64 µg/mL. In the series on S. aureus 144, this molecule had an MIC of over 64 µg/mL. This molecule showed an MIC with S. aureus AD3 of over 64 µg/mL. Besides, in the series on S. aureus ATCC 29213, the MIC was over 64 µg/mL.
For `C=C[C@]1(C)C[C@@H](OC(=O)CSCCN(CC)CC)[C@]2(C)[C@H](C)CC[C@]3(CCC(=O)[C@H]32)[C@@H](C)[C@@H]1O` [Tiamulin, tiamulin, reference compound], the MBC with MRSA ATCC 43300 [1] is 1 µg/mL (≈ 2.03 µM); with S. aureus 144, 2 µg/mL (≈ 4.05 µM); with S. aureus AD3 it was 2 µg/mL (≈ 4.05 µM); against S. aureus ATCC 29213, 1 µg/mL (≈ 2.03 µM). Further, the MIC with MRSA ATCC 43300 [1] stood at 0.5 µg/mL (≈ 1.01 µM); against S. aureus 144, 1 µg/mL (≈ 2.03 µM); with S. aureus AD3 it was 1 µg/mL (≈ 2.03 µM); against S. aureus ATCC 29213, 1 µg/mL (≈ 2.03 µM). Moreover, the “MRSA killed in time–kill assay” value in the series on MRSA ATCC 43300 [2] (2 × MIC, 24 h incubation) turned out to be 99.9%. Besides, in the series with MRSA ATCC 43300 [2] (2 × MIC, 24 h incubation), the “reduction of MRSA in time–kill assay” value was −3.78 log10 CFU/mL. In addition, in the series with MRSA ATCC 43300 [2], the “type of bactericidal kinetics” value was “time-dependent”. The PAE with MRSA ATCC 43300 [3] (2 × MIC, exposure for 1 h) is given as 0.27 h; in the series on MRSA ATCC 43300 [3] (2 × MIC, exposure for 2 h) it was 1.23 h; in the series on MRSA ATCC 43300 [3] (4 × MIC, exposure for 1 h), 0.42 h; with MRSA ATCC 43300 [3] (4 × MIC, exposure for 2 h), 1.31 h. Besides, the “reduction of MRSA load in thigh vs growth control” value with MRSA ATCC 43300 [4] is given as −0.56 log10 CFU/mL.

The MBC is the lowest tested concentration that kills the bacteria rather than only halting them. Higher therefore signals less potent killing. What is called MIC is the lowest concentration that inhibits growth of the organism. Broadly, the melting point is the temperature of the solid-liquid transition.
